Assay results reported in patent US20010044437A1, “Methods for reducing uric acid levels” (priority 2000, published 2001).

System: serum uric acid
Test: Serum uric acid during 28-day once-daily oral dosing, placebo-controlled study in 48 subjects (Example 34)
Format: in vivo, human
Procedure: In another study, 48 subjects were divided into four groups, A, B, C and D, and administered the noted amount of the compound of Example 3. Each group was composed of 12 subjects of whom 9 received the compound and 3 received placebo. The non-placebo members of group A received 50 mg of compound, administered orally once a day for 28 days as a single 50 mg tablet. The non-placebo members of group B received 200 mg of compound administered orally once a day for 28 days as a single 200 mg tablet. The non-placebo members of group C received 500 mg of compound administered orally once a day for 28 days as two 50 mg tablets and two 200 mg tablets. The non-placebo members of group D received 800 mg of compound administered orally once a day for 28 days as four 200 mg tablets. The 3 placebo members of each group, received an amount of placebo, as a tablet, equivalent to the amount of test compound—50 mg placebo for group A, 200 mg placebo for group B, 500 mg placebo for group C and 800 mg placebo for group D. Each subject received a single dose of either compound or placebo for 28 days. The subjects were confined at the clinical site beginning the day before dose administration until 72 hours after the final dose administration on Day 28 and returned for an outpatient visit on Day 35.
Uric acid levels were measured prior to beginning the study (screening), on the day immediately prior to commencement of the study (day-1), and then as noted in the table. Hours indicates the time since the last dose was administered. For example, Day 7, 0 hour indicates the time the serum uric acid level at the time the dose was administered and Day 7, 2 hour indicates the uric acid level two hours after the adminstration that day. Further, the Day 30, 60 hour level is the serum uric acid level measured 60 hours (on Day 30) after the last dose was administered on Day 28. The uric acid levels are presented in mg/dL as a mean of all subjects in each group.

## O=C(O)Cn1cc(Cc2nc3c(F)c(F)cc(F)c3s2)c2ccccc21 [Example 3, 3-(4,5,7-Trifluorobenzothiazol-2-yl)methyl-indole-N-acetic Acid]
Group B 200 mg orally once a day, Day 7 24 Hour
  Uric Acid Level (mean of all subjects in each group): 2.70 mg/dL
Group B 200 mg orally once a day, Day 14 0 Hour
  Uric Acid Level (mean of all subjects in each group): 2.87 mg/dL
Group C 500 mg orally once a day, Day 1 0 Hour
  Uric Acid Level (mean of all subjects in each group): 5.16 mg/dL
Group C 500 mg orally once a day, Day 1 0.5 Hour
  Uric Acid Level (mean of all subjects in each group): 5.08 mg/dL
Group C 500 mg orally once a day, Day 1 1 Hour
  Uric Acid Level (mean of all subjects in each group): 4.81 mg/dL
Group C 500 mg orally once a day, Day 1 2 Hour
  Uric Acid Level (mean of all subjects in each group): 4.27 mg/dL
Group C 500 mg orally once a day, Day 1 3 Hour
  Uric Acid Level (mean of all subjects in each group): 3.84 mg/dL
Group C 500 mg orally once a day, Day 1 4 Hour
  Uric Acid Level (mean of all subjects in each group): 3.54 mg/dL
Group C 500 mg orally once a day, Day 1 6 Hour
  Uric Acid Level (mean of all subjects in each group): 3.30 mg/dL
Group C 500 mg orally once a day, Day 1 8 Hour
  Uric Acid Level (mean of all subjects in each group): 2.82 mg/dL
Group C 500 mg orally once a day, Day 1 10 Hour
  Uric Acid Level (mean of all subjects in each group): 2.59 mg/dL
Group C 500 mg orally once a day, Day 1 12 Hour
  Uric Acid Level (mean of all subjects in each group): 2.56 mg/dL
Group C 500 mg orally once a day, Day 1 16 Hour
  Uric Acid Level (mean of all subjects in each group): 2.36 mg/dL
Group C 500 mg orally once a day, Day 1 24 Hour
  Uric Acid Level (mean of all subjects in each group): 2.74 mg/dL
Group C 500 mg orally once a day, Day 3
  Uric Acid Level (mean of all subjects in each group): 2.21 mg/dL
Group C 500 mg orally once a day, Day 7 0 Hour
  Uric Acid Level (mean of all subjects in each group): 2.17 mg/dL
Group C 500 mg orally once a day, Day 7 0.5 Hour
  Uric Acid Level (mean of all subjects in each group): 2.21 mg/dL
Group C 500 mg orally once a day, Day 7 1 Hour
  Uric Acid Level (mean of all subjects in each group): 2.16 mg/dL
Group C 500 mg orally once a day, Day 7 2 Hour
  Uric Acid Level (mean of all subjects in each group): 2.04 mg/dL
Group C 500 mg orally once a day, Day 7 3 Hour
  Uric Acid Level (mean of all subjects in each group): 1.90 mg/dL
Group C 500 mg orally once a day, Day 7 4 Hour
  Uric Acid Level (mean of all subjects in each group): 1.88 mg/dL
Group C 500 mg orally once a day, Day 7 6 Hour
  Uric Acid Level (mean of all subjects in each group): 2.19 mg/dL
Group C 500 mg orally once a day, Day 7 8 Hour
  Uric Acid Level (mean of all subjects in each group): 2.10 mg/dL
Group C 500 mg orally once a day, Day 7 10 Hour
  Uric Acid Level (mean of all subjects in each group): 2.08 mg/dL
Group C 500 mg orally once a day, Day 7 12 Hour
  Uric Acid Level (mean of all subjects in each group): 1.92 mg/dL
Group C 500 mg orally once a day, Day 7 16 Hour
  Uric Acid Level (mean of all subjects in each group): 1.74 mg/dL
Group C 500 mg orally once a day, Day 7 24 Hour
  Uric Acid Level (mean of all subjects in each group): 2.23 mg/dL
Group C 500 mg orally once a day, Day-1 (before dosing)
  Uric Acid Level (mean of all subjects in each group): 5.10 mg/dL
Group C 500 mg orally once a day, Screening (before dosing)
  Uric Acid Level (mean of all subjects in each group): 5.28 mg/dL
Group D 800 mg orally once a day, Day 1 0 Hour
  Uric Acid Level (mean of all subjects in each group): 5.64 mg/dL
Group D 800 mg orally once a day, Day 1 0.5 Hour
  Uric Acid Level (mean of all subjects in each group): 5.57 mg/dL
Group D 800 mg orally once a day, Day 1 1 Hour
  Uric Acid Level (mean of all subjects in each group): 5.12 mg/dL
Group D 800 mg orally once a day, Day 1 2 Hour
  Uric Acid Level (mean of all subjects in each group): 4.46 mg/dL
Group D 800 mg orally once a day, Day 1 3 Hour
  Uric Acid Level (mean of all subjects in each group): 3.97 mg/dL
Group D 800 mg orally once a day, Day 1 4 Hour
  Uric Acid Level (mean of all subjects in each group): 3.66 mg/dL
Group D 800 mg orally once a day, Day 1 6 Hour
  Uric Acid Level (mean of all subjects in each group): 3.37 mg/dL
Group D 800 mg orally once a day, Day 1 8 Hour
  Uric Acid Level (mean of all subjects in each group): 2.81 mg/dL
Group D 800 mg orally once a day, Day 1 10 Hour
  Uric Acid Level (mean of all subjects in each group): 2.49 mg/dL
Group D 800 mg orally once a day, Day 1 12 Hour
  Uric Acid Level (mean of all subjects in each group): 2.42 mg/dL
Group D 800 mg orally once a day, Day 1 16 Hour
  Uric Acid Level (mean of all subjects in each group): 2.13 mg/dL
Group D 800 mg orally once a day, Day 1 24 Hour
  Uric Acid Level (mean of all subjects in each group): 2.64 mg/dL
Group D 800 mg orally once a day, Day 3
  Uric Acid Level (mean of all subjects in each group): 2.19 mg/dL
Group D 800 mg orally once a day, Day 7 0 Hour
  Uric Acid Level (mean of all subjects in each group): 2.18 mg/dL
Group D 800 mg orally once a day, Day 7 0.5 Hour
  Uric Acid Level (mean of all subjects in each group): 2.10 mg/dL
Group D 800 mg orally once a day, Day 7 1 Hour
  Uric Acid Level (mean of all subjects in each group): 2.07 mg/dL
Group D 800 mg orally once a day, Day 7 2 Hour
  Uric Acid Level (mean of all subjects in each group): 1.98 mg/dL
Group D 800 mg orally once a day, Day 7 3 Hour
  Uric Acid Level (mean of all subjects in each group): 1.90 mg/dL
Group D 800 mg orally once a day, Day 7 4 Hour
  Uric Acid Level (mean of all subjects in each group): 1.90 mg/dL
Group D 800 mg orally once a day, Day 7 6 Hour
  Uric Acid Level (mean of all subjects in each group): 2.23 mg/dL
Group D 800 mg orally once a day, Day 7 8 Hour
  Uric Acid Level (mean of all subjects in each group): 2.21 mg/dL
Group D 800 mg orally once a day, Day 7 10 Hour
  Uric Acid Level (mean of all subjects in each group): 2.20 mg/dL
Group D 800 mg orally once a day, Day 7 12 Hour
  Uric Acid Level (mean of all subjects in each group): 2.10 mg/dL
Group D 800 mg orally once a day, Day 7 16 Hour
  Uric Acid Level (mean of all subjects in each group): 1.78 mg/dL
Group D 800 mg orally once a day, Day 7 24 Hour
  Uric Acid Level (mean of all subjects in each group): 2.26 mg/dL
Group D 800 mg orally once a day, Day-1 (before dosing)
  Uric Acid Level (mean of all subjects in each group): 5.54 mg/dL
Group D 800 mg orally once a day, Screening (before dosing)
  Uric Acid Level (mean of all subjects in each group): 5.68 mg/dL
